For experiment [1], the system named is PBMC. Description: Effects of compound on IL-2 production in anti-CD3/CD28-stimulated human PBMCs assessed as increase in IL-2 level after 2 days by ELISA. Format: functional, tissue-based. The following applies: dose 1-10 µM, time 2.0 day. For orientation: ELISA stands for enzyme-linked immunosorbent assay.
The test system of experiment [2] is PBMC. Description: Effect of compound on human PBMCs assessed as reduction in TGIT expression in CD8-positive T cells after 1 day by flow cytometric analysis. To be noted: dose 1.25-5 µM. Format: functional, cell-based. On the technique in general: Flow cytometry measures light scatter and fluorescence of single cells or particles in a stream.
The nature of experiment [3]: Effects of compound on anti-CD3/CD28-stimulated human PBMCs assessed as CD4-positive cells population at 10 uM after 4 hrs by flow cytometric analysis. Format: functional, PBMC.
Experiment [4] can be described thus: Effects of compound on anti-CD3/CD28-stimulated human PBMCs assessed as non-T cells population at 10 uM after 4 hrs by flow cytometric analysis. It counts as functional, PBMC.
Experiment [5] has as its system PBMC. Description: Effects of compound on TNF-alpha production in anti-CD3/CD28-stimulated human PBMCs assessed as fold increase in TNF-alpha level at 30 uM after 2 days by ELISA. Format: functional, tissue-based. The following applies: time 2.0 day.
Experiment [6] relates to Splenocyte. The experiment is described as follows: Effects of compound on IL-2 production in anti-CD3/CD28-stimulated wild type mouse splenocytes assessed as increase in IL-2 levels at 10 uM after 48 hrs. Format: functional, cell-based.
The target of experiment [7] is Probable G-protein coupled receptor 174 (Homo sapiens, UniProt Q9BXC1). Description: Inverse agonist activity at GPR174 in anti-CD3/CD28-stimulated human PBMCs assessed as reduction in FoxP3-positive Helios-positive nTreg cells after 7 days by flow cytometric analysis. To be noted: PBMC, filed as inverse agonist, dose 3-30 µM, time 7.0 day. Format: functional, tissue-based.
Sequence of Probable G-protein coupled receptor 174 (Q9BXC1 whole entry): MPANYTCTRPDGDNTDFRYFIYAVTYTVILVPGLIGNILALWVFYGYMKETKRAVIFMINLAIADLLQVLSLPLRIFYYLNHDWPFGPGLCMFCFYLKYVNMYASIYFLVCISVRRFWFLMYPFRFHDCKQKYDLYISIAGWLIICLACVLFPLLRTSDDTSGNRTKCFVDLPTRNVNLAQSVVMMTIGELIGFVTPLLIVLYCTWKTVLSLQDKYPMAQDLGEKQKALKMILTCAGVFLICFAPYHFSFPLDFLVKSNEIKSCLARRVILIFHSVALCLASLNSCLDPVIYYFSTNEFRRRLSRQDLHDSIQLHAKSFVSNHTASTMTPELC

Experiment [8] concerns PBMC. Description: Effects of compound on IL-2 production in anti-CD3/CD28-stimulated human PBMCs assessed as increase in IL-2 level at 30 uM after 2 days by ELISA. Format: functional, tissue-based. The following applies: time 2.0 day.
The test system of experiment [9] is PBMC. Description: Effects of compound on IL-10 production in anti-CD3/CD28-stimulated human PBMCs assessed as fold increase in IL-10 level at 30 uM after 2 days by ELISA. It counts as functional, tissue-based. The following applies: time 2.0 day.
A short description of experiment [10]: Induction of TNF production in anti-CD3/CD28-stimulated human PBMCs assessed as fold increase in TNF level at 1 uM after 24 hrs in presence of 0.75 ug/ml ADA by ELISA. Format: functional, PBMC.
The test system of experiment [11] is Splenocyte. The experiment is described as follows: Effects of compound on IL-2 production in anti-CD3/CD28-stimulated GPR174 knock out mouse spleenocytes assessed as fold increase in IL-2 level at 0.3 uM after 2 days in presence of NECA. The following applies: time 2.0 day. Format: functional, cell-based.

Molecules are shown by their SMILES. Calls of active or inactive are those of the source. The rule behind the calls is not given here.

Turning to `CC1CCN(c2cc(N3CCN(S(=O)(=O)c4ccccc4)CC3)c([N+](=O)[O-])cc2F)CC1`, the Activity entry is “Dose-Dependent Effect” in experiment [1]; “Dose-Dependent Effect” in experiment [2]; 46.2% in experiment [3]; 33.9% in experiment [4]; “Dose-Dependent Effect” in experiment [7]. For the same molecule, the outcome in experiment [5], in experiment [6], in [8] and in [9] was Active. In experiment [10], the “fold change (FC)” value was determined as 1.9. Also, the result in experiment [11] was inactive.

(Values after ChEMBL document CHEMBL4806962, “Methods and Compositions for Treating Cancer” (2020).)
